# Source: patent US20150025077A1 (COYOTE PHARMACEUTICALS, INC., priority 2012, published 2015)
# Tests used:
# [1] = system: Rap1; assay: Prenylation of Rap1 in Neuro2A cells, western blotting; type: cell-based, mouse; details: 100 nM; with GGTI-298; percentage of control (GGTI only)
# Description: Mouse neuroblastoma Neuro2A cells were cultured in DMEM supplemented with 10% FBS for 24 hrs. The cells were treated with 102GGA derivative compounds for 24 hrs first before GGTase inhibitor GGTI-298 was added to the culture medium for additional 24 hr incubation. […] Both un-prenylated and total Rap1 protein bands were quantified using Image J and normalized to their respective loading control GAPDH. The results for control and each compound treatment were calculated as the ratio of normalized un-prenylated Rap1 to total Rap1, and averaged from two biological repeats of one experiment. The final results were presented as a percentage of the control treatments (GGTI only) from the same batch experiment. The data shown in the chart were averaged from two repeats of one experiment and presented as the ratio of normalized un-prenylated Rap1 to total Rapt Compound ID numbers in table refer to structures in Table 1 and Table 2.
# [2] = system: Sprague Dawley rats; assay: Kainic acid stereotactic hippocampus injection model, fraction of cells damaged; type: in vivo, rat; details: KA at 72 hours
# Description: CNS-102 was administered orally to Sprague Dawley rats at 12 mg/kg. After dosing, KA was stereotactically injected into the hippocampus at 24, 48, 72, 96 and 168 hours to induce neuron damage. After 24 h, hippocampus tissue was collected, stained, and imaged. The scans were analyzed by Image J to calculate the fraction of cells having KA-induced damage. Average fraction damaged in the hippocampus from ten animals for each treatment (PBS vs. 12 mg/kg CNS-102) by time (24, 48, 72, 96 and 168 hours) combination was estimated with PROC MIXED in SAS. Comparisons of the CNS-102 treatment groups to the pooled PBS treatment at the different times can be made, giving the results tabulated below.
# The fraction of cells damaged in the kainic acid model was determined on 130 rats, each receiving one dose of CNS-102 at either 0, 1, 3, 6, 12 or 24 mg/kg. PBS was used for dosing at 0 mg/kg. The linear model of the log10 percent damage versus concentration is graphically shown FIG. 5.
# After dosing, KA was stereotactically injected into the hippocampus at 72 hours to induce neuron damage. After 24 h, hippocampus tissue was collected, stained, and imaged. The scans were analyzed by Image J to calculate the fraction of cells having KA-induced damage.
# The indicated compounds or vehicle control were orally dosed to Sprague-Dawley rats, and Kainic acid was injected. After dosing, KA was stereotactically injected into the hippocampus at 72 hours to induce neuron damage. After 24 h, hippocampus tissue was collected, stained, and imaged. The scans were analyzed by Image J to calculate the fraction of cells having KA-induced damage. Neurons damaged by Kainic acid (mean of hippocampus CA3 neurons damaged) were quantified.
# [3] = system: HSP70; assay: HSP70 levels in Neuro 2a cells, ELISA; type: cell-based, mouse; details: 48 hrs compound then 24 hrs GGTI-298
# Description: Mouse neuroblastoma 2a cells were cultured in DMEM with 10% FBS for 24 hrs. […] After 24 hrs cells were harvested and lysates were prepared and analyzed by ELISA for HSP70. Compound ID numbers in table refer to structures in Table 1 and Table 2.
Compound,unprenylated/total RAP1 (%) [1] [%],"HSP70 level, ELISA signal (absence of compounds normalized as 1.00) ([3]; 100 nM)",other results
"CC(C)=CCC/C(C)=C/CC/C(C)=C/CC/C(C)=C/COC(=O)C1CCCCC1 [Compound 2f, 2E, 6E, 10E-Geranylgeranyl cyclohexanoate]",65,,
"CCCCCCNC(=O)OC/C=C(\C)CC/C=C(\C)CC/C=C(\C)CCC=C(C)C [Compound 7e, n-Hexyl 2E,6E,10E-geranylgeranyl carbamate]",64,,Mean of Hippocampus CA3 Neurons Damaged ([2]; 12 mg/kg oral): 18%
"COC(=O)[C@@H](NC(=O)OC/C=C(\C)CC/C=C(\C)CC/C=C(\C)CCC=C(C)C)C(C)C [Compound 7j, Methyl 2-(S)-(−)-3-methylbutyrate 2E,6E,10E-geranylgeranyl Carbamate]",63,,Mean of Hippocampus CA3 Neurons Damaged ([2]; 1 mg/kg oral): 13%
"CCOC(=O)CCNC(=O)OC/C=C(\C)CC/C=C(\C)CC/C=C(\C)CCC=C(C)C [Compound 7m, Ethoxycarbonyl ethyl 2E, 6E, 10E-geranylgeranyl carbamate]",54,0.89,
"CCCCCCNC(=O)OC/C=C(\C)CC/C=C(\C)CCC=C(C)C [Compound 8i, Hexyl 2E, 6E-farnesyl carbamate]",59,,"HSP70 level, ELISA signal (absence of compounds normalized as 1.00) ([3]; 10uM): 0.97"
"CCOC(=O)CNC(=S)OC/C=C(\C)CC/C=C(\C)CC/C=C(\C)CCC=C(C)C [Compound 10d, Ethoxycarbonylmethyl 2E,6E,10E-geranylgeranyl thiocarbamate]",62,,"Mean of Hippocampus CA3 Neurons Damaged ([2]; 2 mg/kg oral): 14%; HSP70 level, ELISA signal (absence of compounds normalized as 1.00) ([3]; 10uM): 1.36"
"CC(C)=CCC/C(C)=C/CC/C(C)=C/CC/C(C)=C/COC(=S)NC1CC1 [Compound 10f, Cyclopropyl 2E,6E,10E-geranylgeranyl thiocarbamate]",40,,"Mean of Hippocampus CA3 Neurons Damaged ([2]; 20 mg/kg oral): 16%; HSP70 level, ELISA signal (absence of compounds normalized as 1.00) ([3]; 10uM): 1.57"
"COCCNC(=S)OC/C=C(\C)CC/C=C(\C)CC/C=C(\C)CCC=C(C)C [Compound 10i, Methoxy-2′-ethyl 2E,6E,10E-geranylgeranyl thiocarbamate]",83,1.04,"Mean of Hippocampus CA3 Neurons Damaged ([2]; 2 mg/kg oral): 22%; HSP70 level, ELISA signal (absence of compounds normalized as 1.00) ([3]; 10uM): 1.08"
"CC(C)=CCC/C(C)=C/CC/C(C)=C/CC/C(C)=C/COC(=S)NC1CC2CCC1C2 (stereo not drawn) [Compound 10j, Exo-Norbornyl 2E,6E,10E-geranylgeranyl thiocarbamate]",91,1.06,"HSP70 level, ELISA signal (absence of compounds normalized as 1.00) ([3]; 10uM): 1.08"
"CC(C)=CCC/C(C)=C/CC/C(C)=C/CC/C(C)=C/COC(=S)NCCN1CCCCC1 [Compound 10l, Piperidinyl-2′-ethyl 2E,6E,10E-geranylgeranyl thiocarbamate]",164,1.16,"Mean of Hippocampus CA3 Neurons Damaged ([2]; 20 mg/kg oral): 14%; HSP70 level, ELISA signal (absence of compounds normalized as 1.00) ([3]; 10uM): 1.37"
"CC(C)=CCC/C(C)=C/CC/C(C)=C/CC/C(C)=C/COC(=S)NCCN1CCOCC1 [Compound 10m, Morpholinyl-2′-ethyl 2E,6E,10E-geranylgeranyl thiocarbamate]",100,,"HSP70 level, ELISA signal (absence of compounds normalized as 1.00) ([3]; 10uM): 1.06"
"CCCCCNC(=O)OC(C)CC/C=C(\C)CC/C=C(\C)CCC=C(C)C (stereo not drawn) [Compound 20d, n-Pentyl 5E, 9E-farnesyl prop-2-yl carbamate]",67,,
"CC(C)=CCC/C(C)=C/CC/C(C)=C/CCC(C)OC(=O)NCC1CCCCC1 (stereo not drawn) [Compound 20h, Cyclohexylmethyl 5E, 9E-farnesyl prop-2-yl carbamate]",58,,
"CC(C)=CCC/C(C)=C/CC/C(C)=C/CC/C(C)=C/C1=N[C@@H](Cc2ccccc2)CO1 [Compound 27g, (S)-4-benzyl-2-((1E,5E,9E)-2,6,10,14-tetramethylpentadeca-1,5,9,13-tetraen-1-yl)-4,5-dihydrooxazole]",129,,"HSP70 level, ELISA signal (absence of compounds normalized as 1.00) ([3]; 10uM): 1.11"
"CC(C)=CCC/C(C)=C/CC/C(C)=C/CC/C(C)=C/C1=N[C@@H](CC(C)C)C(=O)O1 [Compound 37d, (S)-4-isobutyl-2-((1E,5E,9E)-2,6,10,14-tetramethylpentadeca-1,5,9,13-tetraen-1-yl)oxazol-5(4H)-one]",128,,"HSP70 level, ELISA signal (absence of compounds normalized as 1.00) ([3]; 10uM): 1.04"
CC(=O)CC/C=C(\C)CC/C=C(\C)CCC=C(C)C [Compound 52],71,,
COCC(=O)C(C/C=C(\C)CC/C=C(\C)CC/C=C(\C)CCC=C(C)C)C(=O)OC (stereo not drawn) [Compound 80],,1.02,
COCCC(=O)C(C/C=C(\C)CC/C=C(\C)CC/C=C(\C)CCC=C(C)C)C(=O)OC (stereo not drawn) [Compound 81],,1.12,

Compound,unprenylated/total RAP1 (%) [1] [%],"HSP70 level, ELISA signal (absence of compounds normalized as 1.00) ([3]; 100 nM)",other results
CC(C)=CCC/C(C)=C/CC/C(C)=C/CC/C(C)=C/CC1CCCCC1=O (stereo not drawn) [Compound 84],72,,
CCOC(=O)C(C/C=C(\C)CC/C=C(\C)CC/C=C(\C)CCC=C(C)C)C(C)=O (stereo not drawn) [Compound 87],,0.95,
CC(=O)CC/C=C(\C)CCC=C1CCCCC1 [Compound 92],,0.92,
CCOC(=O)C=C1CCCCC1 [Compound 93],,0.87,
CC(C)=CCC/C(C)=C/CC/C(C)=C/CCC(=O)C(C)(C)C [Compound 100],,1.14,
CCC(=O)CC/C=C(\C)CC/C=C(\C)CCC=C(C)C [Compound 102],,1.04,
CON=C(C)CC/C=C(\C)CC/C=C(\C)CC/C=C(\C)CCC=C(C)C [Compound 104],,0.90,
C=CCO/N=C(\C)CC/C=C(\C)CC/C=C(\C)CC/C=C(\C)CCC=C(C)C [Compound 109],,1.12,
CC(C)=CCC/C(C)=C/CC/C(C)=C/CC/C(C)=C/CC/C(C)=N/OC1CCCCO1 (stereo not drawn) [Compound 111],,1.10,
CC(C)=CCC/C(C)=C/CC/C(C)=C/CC/C(C)=C/CC/C(C)=N/OCc1ccccc1 [Compound 113],,1.01,
CCC(=CCCC(C)=O)CC/C=C(\C)CC/C=C(\C)CCC=C(C)C [Compound 117],,1.08,
CC/C(=C\CCC(=O)C12CC3CC(CC(C3)C1)C2)CC/C=C(\C)CC/C=C(\C)CCC=C(C)C [Compound 127],77,,
CCC(=O)CC/C=C(\CC)CC/C=C(\C)CC/C=C(\C)CCC=C(C)C [Compound 128],67,,
CCOC(=O)/C=C(\CC)CC/C=C(\C)CC/C=C(\C)CCC=C(C)C [Compound 131],61,,
CC(=O)CC/C=C(\C)CC/C=C(\C)CC/C=C(\C)CC/C=C(\C)CCC=C(C)C [Compound 132],103,,
C=CCCC(=O)CC/C=C(\C)CC/C=C(\C)CC/C=C(\C)CCC=C(C)C [Compound 146],,1.13,
CC(C)=CCC/C(C)=C/CC/C(C)=C/CC/C(C)=C/CC1CCCCCC1=O (stereo not drawn) [Compound 147],,0.94,
